{
  "source": "PubChem BioAssay AID2775",
  "about": "(Southern Research Specialized Biocontainment Screening …, 2010)",
  "key": {"[1]": {"assay": "antiviral efficacy and BSC cell toxicity – BSC cells, set 2, SV40 T antigen inhibitor project (AID 2775)", "settings": "BSC cells, SV40 CPE inhibition and viability; for viability: BSC cell viability, at 100 µM, stronger effect = lower value"}, "[2]": {"tested_on": "BSC cells, SV40 CPE inhibition and viability", "assay": "antiviral efficacy and BSC cell toxicity – BSC cells, set 2, SV40 T antigen inhibitor project (AID 2775)", "settings": "for EC50: measured here: SV40 T antigen ATPase"}},
  "note": "Calls of active or inactive are those of the source. No rule for the calls is given here.",
  "data": [
    {"smiles": "O=C(c1cccn1-c1ccccc1)c1cccn1-c1ccccc1", "values": [
      {"measurement": "outcome", "setting": "[1]", "result": "inactive"},
      {"measurement": "viability", "setting": "[1]", "result": 110, "unit": "%"}
    ]},
    {"smiles": "COc1cccc(NC(=O)Cn2sc3ccccc3c2=O)c1", "values": [
      {"measurement": "viability", "setting": "[1]", "result": 52.5, "unit": "%"},
      {"measurement": "CC50", "setting": "[2]", "result": "57 µM (inactive)"},
      {"measurement": "EC50", "setting": "[2]", "result": 69.2, "unit": "µM"}
    ]},
    {"smiles": "O=C(Cn1sc2ccccc2c1=O)Nc1cccc(C(F)(F)F)c1", "values": [
      {"measurement": "outcome", "setting": "[1]", "result": "inactive"},
      {"measurement": "viability", "setting": "[1]", "result": 87.5, "unit": "%"}
    ]},
    {"smiles": "O=C(Cn1sc2ccccc2c1=O)Nc1ccccc1", "values": [
      {"measurement": "viability", "setting": "[1]", "result": 24, "unit": "%"},
      {"measurement": "CC50", "setting": "[2]", "result": "61 µM (inactive)"},
      {"measurement": "EC50", "setting": "[2]", "result": 35, "unit": "µM"}
    ]},
    {"smiles": "COc1cccc(-n2nnnc2C(Cl)(Cl)c2nnnn2-c2cccc(OC)c2)c1", "values": [
      {"measurement": "outcome", "setting": "[1]", "result": "inactive"},
      {"measurement": "viability", "setting": "[1]", "result": 99.5, "unit": "%"}
    ]},
    {"smiles": "O=C(Cn1sc2ccccc2c1=O)Nc1ccc(Cl)cc1", "values": [
      {"measurement": "outcome", "setting": "[1]", "result": "inactive"},
      {"measurement": "viability", "setting": "[1]", "result": 83, "unit": "%"}
    ]},
    {"smiles": "COc1ccc(NC(=O)Cn2sc3ccccc3c2=O)cc1", "values": [
      {"measurement": "viability", "setting": "[1]", "result": 24.9, "unit": "%"},
      {"measurement": "CC50", "setting": "[2]", "result": "73 µM (inactive)"},
      {"measurement": "EC50", "setting": "[2]", "result": 35, "unit": "µM"}
    ]},
    {"smiles": "Cc1ccc(NC(=O)Cn2sc3ccccc3c2=O)cc1", "values": [
      {"measurement": "viability", "setting": "[1]", "result": 22, "unit": "%"},
      {"measurement": "CC50", "setting": "[2]", "result": "57 µM (inactive)"},
      {"measurement": "EC50", "setting": "[2]", "result": 52.8, "unit": "µM"}
    ]},
    {"smiles": "O=C(Cn1sc2ccccc2c1=O)NCc1ccccc1", "values": [
      {"measurement": "viability", "setting": "[1]", "result": 22.9, "unit": "%"},
      {"measurement": "CC50", "setting": "[2]", "result": "58 µM (inactive)"},
      {"measurement": "EC50", "setting": "[2]", "result": 31.8, "unit": "µM"}
    ]},
    {"smiles": "O=C(Cn1sc2ccccc2c1=O)Nc1ccc(F)cc1", "values": [
      {"measurement": "viability", "setting": "[1]", "result": 30.5, "unit": "%"},
      {"measurement": "CC50", "setting": "[2]", "result": "59 µM (inactive)"},
      {"measurement": "EC50", "setting": "[2]", "result": 55.5, "unit": "µM"}
    ]}
  ]
}
